In ChEMBL document CHEMBL1201862, “PubChem BioAssay data set” (2004):
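The compound was tested at five concentrations on cells cultured in 96-well plates, with a 48-hour exposure period. GI50 = concentration required for 50% inhibition of growth.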 Calls of active or inactive are those of the source. No stated cut-off is given here; in the data, active = GI50 up to about 1.1 µM and inactive = higher.

Key:
Experiment in all cases: DTP human tumour cell line panel, 48 h
[1] = tested on: UACC-62
[2] = tested on: CCRF-CEM
[3] = tested on: TK-10
[4] = tested on: KM12
[5] = tested on: DLD-1
[6] = tested on: HT-29
[7] = tested on: SF-268
[8] = tested on: HOP-92
[9] = tested on: M14
[10] = tested on: HCT-116
[11] = tested on: DMS-273
[12] = tested on: 786-0
[13] = tested on: A549
[14] = tested on: HL-60
[15] = tested on: SR
[16] = tested on: SNB-75
[17] = tested on: LOX IMVI
[18] = tested on: NCI-H522
[19] = tested on: K562
[20] = tested on: IGROV-1
[21] = tested on: UACC-257
[22] = tested on: RPMI-8226
[23] = tested on: MOLT-4
[24] = tested on: NCI-H226
[25] = tested on: SF-539
[26] = tested on: EKVX
[27] = tested on: SK-MEL-28
[28] = tested on: SW-620
[29] = tested on: SK-MEL-5
[30] = tested on: M19-MEL
[31] = tested on: OVCAR-3
[32] = tested on: SK-OV-3
[33] = tested on: CAKI-1
[34] = tested on: SF-295
[35] = tested on: ACHN
[36] = tested on: KM-20L2
[37] = tested on: LXFL 529
[38] = tested on: SK-MEL-2
[39] = tested on: RXF 393
[40] = tested on: OVCAR-5
[41] = tested on: NCI-H460
[42] = tested on: Malme-3M
[43] = tested on: OVCAR-8
[44] = tested on: HCT-15
[45] = tested on: HCC 2998
[46] = tested on: HOP-18
[47] = tested on: OVCAR-4
[48] = tested on: NCI-H23
[49] = tested on: SNB-19
[50] = tested on: COLO 205
[51] = tested on: SN12C
[52] = tested on: U-251
[53] = tested on: UO-31
[54] = tested on: HOP-62
[55] = tested on: SNB-78
[56] = tested on: A498
[57] = tested on: DMS-114

Measured: GI50

N#CC(c1ccc(Cl)cc1)c1c(=O)[nH]c2ccc(N)cc2[n+]1[O-] (centres undefined)
inactive: [1] > 100 µM | [2] > 100 µM | [3] > 100 µM | [4] > 100 µM | [5] > 100 µM | [6] > 100 µM | [7] > 100 µM | [8] > 100 µM | [9] > 100 µM | [10] > 100 µM | [11] > 100 µM | [12] > 100 µM | [13] > 100 µM | [14] > 100 µM | [15] > 100 µM | [16] > 100 µM | [17] > 100 µM | [18] > 100 µM | [19] > 100 µM | [20] > 100 µM | [21] > 100 µM | [22] > 100 µM | [23] > 100 µM | [24] > 100 µM | [25] > 100 µM | [26] > 100 µM | [27] > 100 µM | [28] > 100 µM | [29] > 100 µM | [30] > 100 µM | [31] > 100 µM | [32] > 100 µM | [33] > 100 µM | [34] > 100 µM | [35] > 100 µM | [36] > 100 µM | [37] > 100 µM

COc1cccc(C(=O)O)c1Cc1cccc2ccccc12
inactive: [1] > 100 µM | [2] > 100 µM | [3] > 100 µM | [38] > 100 µM | [4] > 100 µM | [5] > 100 µM | [39] > 100 µM | [40] > 100 µM | [6] > 100 µM | [41] > 100 µM | [7] > 100 µM | [9] > 100 µM | [10] > 100 µM | [11] > 100 µM | [42] > 100 µM | [43] 99.8 µM | [12] > 100 µM | [13] > 100 µM | [14] > 100 µM | [15] > 100 µM | [16] > 100 µM | [45] > 100 µM | [17] > 100 µM | [18] > 100 µM | [19] > 100 µM | [46] > 100 µM | [20] > 100 µM | [47] > 100 µM | [21] > 100 µM | [48] > 100 µM | [23] > 100 µM | [24] > 100 µM | [26] > 100 µM | [27] > 100 µM | [28] > 100 µM | [29] > 100 µM | [30] > 100 µM | [49] > 100 µM | [50] > 100 µM | [31] > 100 µM | [32] > 100 µM | [51] > 100 µM | [33] > 100 µM | [34] > 100 µM | [52] > 100 µM | [53] > 100 µM | [35] > 100 µM | [36] > 100 µM | [37] > 100 µM | [54] > 100 µM
> 100 µM: [44]

CN(C)CCNC(=O)c1cccc2ccc(-c3ccncc3)nc12
1.44 µM: [44]
inactive: [1] 1.8 µM | [2] 1.87 µM | [3] 2.21 µM | [38] 4.02 µM | [4] 3.67 µM | [5] 2.48 µM | [39] 2.36 µM | [40] 1.93 µM | [55] 7.24 µM | [6] 2.54 µM | [56] 1.3 µM | [7] 3.79 µM | [8] 2.16 µM | [9] 4.11 µM | [10] 1.27 µM | [43] 2.26 µM | [12] 2.72 µM | [16] 3.2 µM | [45] 1.96 µM | [17] 1.39 µM | [19] 2.58 µM | [46] 3.47 µM | [20] 1.47 µM | [47] 2.79 µM | [21] 2.06 µM | [48] 1.8 µM | [25] 1.45 µM | [26] 2.47 µM | [27] 4.86 µM | [28] 1.33 µM | [29] 1.55 µM | [30] 1.89 µM | [49] 2.81 µM | [50] 1.3 µM | [31] 2.78 µM | [57] 2.96 µM | [32] 2.22 µM | [51] 1.61 µM | [33] 1.52 µM | [34] 2.88 µM | [52] 1.63 µM | [53] 1.94 µM | [35] 1.17 µM | [54] 1.66 µM
active: [41] 0.403 µM | [11] 1.1 µM | [13] 0.817 µM | [14] 0.877 µM | [23] 0.306 µM

O=C1C=CC2(C=C1)C[C@H](NC(=O)C(F)(F)F)C(=O)O2
31.6 µM: [44]
inactive: [1] 18.1 µM | [2] 16.4 µM | [3] > 100 µM | [4] 73.5 µM | [5] 22.9 µM | [39] 27.5 µM | [40] > 100 µM | [55] > 100 µM | [6] 79.6 µM | [41] > 100 µM | [56] > 100 µM | [7] 37.9 µM | [9] 73.8 µM | [10] 58.9 µM | [42] 19.8 µM | [43] 37.2 µM | [12] > 100 µM | [13] > 100 µM | [14] 14.2 µM | [15] 37 µM | [16] 69 µM | [45] 46.9 µM | [17] 22.3 µM | [18] 17.3 µM | [19] 20.4 µM | [47] > 100 µM | [21] 34.8 µM | [48] 26.7 µM | [22] 31.3 µM | [23] 20.4 µM | [24] > 100 µM | [25] 34.7 µM | [26] 18.2 µM | [27] 18.5 µM | [29] 76.2 µM | [30] 23.6 µM | [49] > 100 µM | [50] 29.6 µM | [31] > 100 µM | [57] 64.6 µM | [32] > 100 µM | [51] 50 µM | [33] 30.5 µM | [34] > 100 µM | [52] 54.3 µM | [53] > 100 µM | [35] > 100 µM | [36] > 100 µM | [37] 23.7 µM | [54] > 100 µM
